Active and inactive are the calls of the source. The rule behind the calls is not given here.
Columns and labels:
[1] = AUC (0 to infinity) in male Sprague-Dawley rat at 2.5 mg/kg, ip measured after 5 to 1440 mins by LC-MS/MS analysis; type: ADME, organism-based; details: in vivo, time 5-1440 min
Mus musculus [2] = test: Upregulation of lipid and atherosclerosis related genes in hypothalamus of mouse at 2.5 mg/kg, ip measured after 30 mins by KEGG enrichment analysis relative to control; type: functional; details: 0.5 h
[3] = AUC (0 to t) in male Sprague-Dawley rat at 2.5 mg/kg, ip measured after 5 to 1440 mins by LC-MS/MS analysis; type: ADME, organism-based; details: in vivo, time 5-1440 min
[4] = Upregulation of Rap1 signaling pathway related genes in hypothalamus of mouse at 2.5 mg/kg, ip measured after 30 mins by KEGG enrichment analysis relative to control; type: functional; details: 0.5 h
Mus musculus [5] = test: Upregulation of parathyroid hormone secretion related genes in hypothalamus of mouse at 2.5 mg/kg, ip measured after 30 mins by KEGG enrichment analysis relative to control; type: functional; details: 0.5 h
[6] = Cmax in male Sprague-Dawley rat at 0.5 mg/kg, iv measured after 2 to 720 mins by LC-MS/MS analysis; type: ADME, organism-based; details: in vivo, time 2-720 min
Mus musculus [7] = test: Upregulation of signaling pathways regulating pluripotent stem cells related genes in hypothalamus of mouse at 2.5 mg/kg, ip measured after 30 mins by KEGG enrichment analysis relative to control; type: functional; details: 0.5 h
[8] = Upregulation of focal adhesion related genes in hypothalamus of mouse at 2.5 mg/kg, ip measured after 30 mins by KEGG enrichment analysis relative to control; type: functional; details: 0.5 h
[9] = Upregulation of mTOR signaling pathway related genes in hypothalamus of mouse at 2.5 mg/kg, ip measured after 30 mins by KEGG enrichment analysis relative to control; type: functional; details: 0.5 h
Mus musculus [10] = test: Sedative-hypnotic activity in mouse assessed as decrease in number of square crossing at 0.1 to 0.5 mg/kg, ip administrated as single dose and measured within 3 mins by open field test; type: functional, organism-based; details: dose 0.1-0.5 mg/kg
Mus musculus [11] = test: Sedative-hypnotic activity in pentobarbital-induced mouse assessed as decrease in sleep latency at 0.5 to 2.5 mg/kg, ip administrated as single dose; type: functional, organism-based; details: dose 0.5-2.5 mg/kg
Mus musculus [12] = test: Upregulation of gap junction related genes in hypothalamus of mouse at 2.5 mg/kg, ip measured after 30 mins by KEGG enrichment analysis relative to control; type: functional; details: 0.5 h
[13] = Cmax in male Sprague-Dawley rat at 2.5 mg/kg, ip measured after 5 to 1440 mins by LC-MS/MS analysis; type: ADME, organism-based; details: in vivo, time 5-1440 min
[14] = MRT (0 to infinity) in male Sprague-Dawley rat at 2.5 mg/kg, ip measured after 5 to 1440 mins by LC-MS/MS analysis; type: ADME, organism-based; details: in vivo, time 5-1440 min
Mus musculus [15] = test: Upregulation of parathyroid hormone action related genes in hypothalamus of mouse at 2.5 mg/kg, ip measured after 30 mins by KEGG enrichment analysis relative to control; type: functional; details: 0.5 h
[16] = Upregulation of cushing syndrome related genes in hypothalamus of mouse at 2.5 mg/kg, ip measured after 30 mins by KEGG enrichment analysis relative to control; type: functional; details: 0.5 h
[17] = Apparent volume of distribution in male Sprague-Dawley rat at 2.5 mg/kg, ip measured after 5 to 1440 mins by LC-MS/MS analysis; type: ADME, organism-based; details: in vivo, time 5-1440 min
[18] = Tmax in male Sprague-Dawley rat at 2.5 mg/kg, ip measured after 5 to 1440 mins by LC-MS/MS analysis; type: ADME, organism-based; details: in vivo, time 5-1440 min
Mus musculus [19] = test: Upregulation of calcium signaling pathway related genes in hypothalamus of mouse at 2.5 mg/kg, ip measured after 30 mins by KEGG enrichment analysis relative to control; type: functional; details: 0.5 h
[20] = Upregulation of proteoglycans in cancer related genes in hypothalamus of mouse at 2.5 mg/kg, ip measured after 30 mins by KEGG enrichment analysis relative to control; type: functional; details: 0.5 h
Mus musculus [21] = test: In vivo activation of cAMP/PKA/CREB signaling pathway in mouse assessed as increase in cAMP level in hypothalamus at 2.5 mg/kg, ip measured after 30 mins by ELISA analysis; type: functional, organism-based
[22] = Drug concentration in male mouse plasma at 10 mg/kg, ip measured after 2 hrs by LC-MS/MS analysis; type: ADME, organism-based
[23] = Upregulation of cGMP-PKG signaling pathway related genes in hypothalamus of mouse at 2.5 mg/kg, ip measured after 30 mins by KEGG enrichment analysis relative to control; type: functional; details: 0.5 h
[24] = MRT (0 to infinity) in male Sprague-Dawley rat at 0.5 mg/kg, iv measured after 2 to 720 mins by LC-MS/MS analysis; type: ADME, organism-based; details: in vivo, time 2-720 min
Mus musculus [25] = test: In vivo activation of cAMP/PKA/CREB signaling pathway in mouse assessed as increase in PKA expression in hypothalamus at 2.5 mg/kg, ip measured after 30 mins by Western blot analysis; type: functional, organism-based
[26] = Half life in male Sprague-Dawley rat at 0.5 mg/kg, iv measured after 2 to 720 mins by LC-MS/MS analysis; type: ADME, organism-based; details: in vivo, time 2-720 min
Mus musculus [27] = test: Sedative-hypnotic activity in mouse assessed as decrease in number of square crossing at 2.5 mg/kg, ip administrated as single dose and measured within 3 mins by open field test; type: functional, organism-based
Mus musculus [28] = test: Upregulation of serine metabolism related genes in hypothalamus of mouse at 2.5 mg/kg, ip measured after 30 mins by KEGG enrichment analysis relative to control; type: functional; details: 0.5 h
Mus musculus [29] = test: Sedative-hypnotic activity in pentobarbital-induced mouse assessed as decrease in sleep latency at 0.2 to 5 mg/kg, ip; type: functional, organism-based; details: dose 0.2-5 mg/kg
Mus musculus [30] = test: Upregulation of circadian entrainment related genes in hypothalamus of mouse at 2.5 mg/kg, ip measured after 30 mins by KEGG enrichment analysis relative to control; type: functional; details: 0.5 h
[31] = Upregulation of human T-cell leukemia virus 1 infection related genes in hypothalamus of mouse at 2.5 mg/kg, ip measured after 30 mins by KEGG enrichment analysis relative to control; type: functional; details: 0.5 h
[32] = AUC (0 to t) in male Sprague-Dawley rat at 0.5 mg/kg, iv measured after 2 to 720 mins by LC-MS/MS analysis; type: ADME, organism-based; details: in vivo, time 2-720 min
[33] = Tmax in male Sprague-Dawley rat at 0.5 mg/kg, iv measured after 2 to 720 mins by LC-MS/MS analysis; type: ADME, organism-based; details: in vivo, time 2-720 min
[34] = Drug concentration in male mouse plasma at 10 mg/kg, ip measured after 1 hrs by LC-MS/MS analysis; type: ADME, organism-based
[35] = Upregulation of herpes simplex virus 1 infection related genes in hypothalamus of mouse at 2.5 mg/kg, ip measured after 30 mins by KEGG enrichment analysis relative to control; type: functional; details: 0.5 h
Mus musculus [36] = test: Upregulation of serotonergic synapse related genes in hypothalamus of mouse at 2.5 mg/kg, ip measured after 30 mins by KEGG enrichment analysis relative to control; type: functional; details: 0.5 h
[37] = Upregulation of Ras signaling pathway related genes in hypothalamus of mouse at 2.5 mg/kg, ip measured after 30 mins by KEGG enrichment analysis relative to control; type: functional; details: 0.5 h
Mus musculus [38] = test: Upregulation of purine metabolism related genes in hypothalamus of mouse at 2.5 mg/kg, ip measured after 30 mins by KEGG enrichment analysis relative to control; type: functional; details: 0.5 h

SMILES: CCn1c2ccccc2c2cc(Nc3ccnc(Nc4ccc(C)c(OC)c4)n3)ccc21
- AUC(0-inf) [1]: 3300 ng·h/mL
- Activity (Mus musculus [2]): 7.51%
- AUC(0-t) [3]: 3180 ng·h/mL
- Activity [4]: 3.47%
- Activity (Mus musculus [5]): 4.05%
- Cmax [6]: 893 ng/mL
- Activity (Mus musculus [7]): 2.89%
- Activity [8]: 2.89%
- Activity [9]: 3.47%
- Activity (Mus musculus [10]): Active; No Significant Difference Compared With Control Mouse
- Activity (Mus musculus [11]): Active
- Activity (Mus musculus [12]): 2.89%
- Cmax [13]: 281 ng/mL
- MRT inf [14]: 8.16 h
- Activity (Mus musculus [15]): 4.05%
- Activity [16]: 4.05%
- Vd(app) [17]: 5.023 L/kg
- Tmax [18]: 4 h
- Activity (Mus musculus [19]): 4.62%
- Activity [20]: 5.2%
- Activity (Mus musculus [21]): Active
- concentration at 2 h [22]: 60.4 ng/mL
- Activity [23]: 2.89%
- MRT inf [24]: 3.47 h
- Activity (Mus musculus [25]): Active
- half-life [26]: 3.54 h
- Activity (Mus musculus [27]): Active
- Activity (Mus musculus [28]): 1.73%
- Activity (Mus musculus [29]): Active
- Activity (Mus musculus [30]): 3.47%
- Activity [31]: 4.62%
- AUC(0-t) [32]: 801 ng·h/mL
- Tmax [33]: 1.8 min
- concentration at 1 h [34]: 75 ng/mL
- Activity [35]: 5.78%
- Activity (Mus musculus [36]): 4.05%
- Activity [37]: 3.47%
- Activity (Mus musculus [38]): 1.73%

Source: ChEMBL document CHEMBL6121007, “Design, synthesis and evaluation of pyrimidine derivatives as sedative-hypnotic agents” (Eur J Med Chem, 2025)
